Measurements from paper PMC9774897 (Antibiotics, 2022).
Values after ≈ are worked out from the molar mass of the structure shown. Like-named read-outs stand apart in the source and are kept apart here. Residues, ends and D or L forms follow the SMILES beside them.

How the values were obtained:
M. tuberculosis H37Rv [1] = system: M. tuberculosis H37Rv; set-up: method as in PMID 32750539, PMID 29900893; details: previous reports; ref [30],[31]; cited from earlier work
M. tuberculosis H37Rv [2] = assay: Checkerboard assay (REMA read-out); assay type: cell-based, Mycobacterium tuberculosis; details: for MIC: Mycobacterium tuberculosis, H37RV, 168 h, checkerboard, agent alone; for MIC / MIC, Combined: REMA read-out, 7 days
M. tuberculosis [3] = details: Kinetic killing assay; ref [22]; cited from earlier work
Text: Table 6 The general characteristics and the previously reported MIC of each antimicrobial peptide used in this study. | column: MIC (µg/mL)

M. tuberculosis [4] = details: cited from earlier work
M. tuberculosis H37Rv [5] = details: 3 h, 100 µg/mL

NNC(=O)c1ccncc1 [INH, isoniazid]
MIC (M. tuberculosis H37Rv [1]): 0.03 to 0.12 µg/mL
MIC (M. tuberculosis H37Rv [2]): 0.025 µg/mL
FIC (M. tuberculosis H37Rv [2]; combination INH + D-hLF 1-11): 0.48
MIC, Combined (M. tuberculosis H37Rv [2]; combination INH + D-hLF 1-11): 0.012 µg/mL

CC(C)C[C@H](NC(=O)[C@H](CC(C)C)NC(=O)[C@H](CCCCN)NC(=O)[C@H](CCCCN)NC(=O)[C@@H](NC(=O)[C@H](C)N)C(C)C)C(=O)N[C@@H](CCCNC(=N)N)C(=O)N[C@@H](Cc1c[nH]c2ccccc12)C(=O)N[C@@H](Cc1c[nH]c2ccccc12)C(=O)N[C@@H](CO)C(=O)N[C@@H](CCCNC(=N)N)C(=O)N[C@@H](Cc1c[nH]c2ccccc12)C(=O)N[C@@H](Cc1c[nH]c2ccccc12)C(=O)N[C@@H](CCCCN)C(=O)N[C@@H](CCCCN)C(=O)O [AK 15-6] (H-AVKKLLRWWSRWWKK-OH; N-terminus and C-terminus assumed)
MIC (M. tuberculosis [3]): 37.5 µg/mL (≈ 18.1 µM)

CO[C@H]1/C=C/O[C@@]2(C)Oc3c(C)c(O)c4c(O)c(c(/C=N/N5CCN(C)CC5)c(O)c4c3C2=O)NC(=O)/C(C)=C\C=C\[C@H](C)[C@H](O)[C@@H](C)[C@@H](O)[C@@H](C)[C@H](OC(C)=O)[C@@H]1C [RF, rifampicin]
MIC (M. tuberculosis H37Rv [1]): 0.12 to 0.5 µg/mL
MIC (M. tuberculosis H37Rv [2]): 0.5 µg/mL
MIC, Combined (M. tuberculosis H37Rv [2]; combination RF + D-hLF 1-11): 0.031 25 µg/mL

CC(C)C[C@H](NC(=O)[C@H](CCCNC(=N)N)NC(=O)CNC(=O)CNC(=O)[C@@H](N)CCCNC(=N)N)C(=O)N[C@H]1CSSC[C@@H](C(=O)N[C@H](C(=O)NCC(=O)N[C@@H](CCCNC(=N)N)C(N)=O)C(C)C)NC(=O)[C@H](C(C)C)NC(=O)[C@@H]2CSSC[C@H](NC(=O)[C@H](Cc3ccc(O)cc3)NC1=O)C(=O)N[C@@H](CCCNC(=N)N)C(=O)N[C@@H](CCCNC(=N)N)C(=O)N[C@@H](CCCNC(=N)N)C(=O)N[C@@H](Cc1ccccc1)C(=O)N2 [PG-1]
percent of mycobacterial growth inhibition (M. tuberculosis [4]; 128 µg/mL, ref [3] Fattorini and colleagues): 96.7%
MIC (M. tuberculosis [4]; Plate count assay, ref [3]): 128 µg/mL (≈ 59.4 µM)
percent of mycobacterial growth inhibition (M. tuberculosis H37Rv [5]): approximately 94.22%
